From patent US6706880B2 (Research Triangle Institute, priority 1990, dated 2004)
Counter-ions that a name gives are not always drawn. Like-named read-outs stand apart in the source and are kept apart here.

What was measured:
dopamine transporter = dopamine transporter (UniProt P23977); format: binding
Excerpt: (§1) Illustrative in vitro assays for binding are described in Boja et al Ann. NY Acad. Sci. 654:282-291 (1992), which is incorporated herein by reference in its entirety. […] Alternatively, the compounds may be analyzed by their ability to inhibit reuptake of a labelled neurotransmitter in a sample, in particular, in synaptosomes.

[1] = biological target: norepinephrine transporter (UniProt Q9WTR4); assay: Inhibition of [3H]nisoxetine radioligand binding at the norepinephrine transporter
Excerpt: as §1

serotonin transporter = biological target: T1, serotonin transporter (Rattus norvegicus, UniProt P31652); assay: Inhibition of [3H]paroxetine radioligand binding at the serotonin transporter
T1 construct: from tissue
Excerpt: as §1

[2] = read-out: IC50 DA [3H]-WIN 35,428, Table IV
[3] = read-out: IC50 NE [3H]-nisoxetine, Table IV
[4] = IC50 5-HT [3H]-paroxetine, Table IV
[5] = read-out: IC50 NE [3H]-nisoxetine, Table II
[6] = IC50 5-HT [3H]-paroxatine, Table II
[7] = 5-HT=[3H] paroxetine, read-out: 5-HT IC50 for inhibition of radioligand binding
[8] = read-out: DA IC50 for inhibition of radioligand binding, DA=[3H]WIN 35,428
[9] = read-out: NEN IC50 for inhibition of radioligand binding, NEN=[3H] nisoxetine
[10] = 5-HT IC50 for inhibition of radioligand binding, 5-HT=[3H] paroxetine

T1 sequence (P31652 whole entry): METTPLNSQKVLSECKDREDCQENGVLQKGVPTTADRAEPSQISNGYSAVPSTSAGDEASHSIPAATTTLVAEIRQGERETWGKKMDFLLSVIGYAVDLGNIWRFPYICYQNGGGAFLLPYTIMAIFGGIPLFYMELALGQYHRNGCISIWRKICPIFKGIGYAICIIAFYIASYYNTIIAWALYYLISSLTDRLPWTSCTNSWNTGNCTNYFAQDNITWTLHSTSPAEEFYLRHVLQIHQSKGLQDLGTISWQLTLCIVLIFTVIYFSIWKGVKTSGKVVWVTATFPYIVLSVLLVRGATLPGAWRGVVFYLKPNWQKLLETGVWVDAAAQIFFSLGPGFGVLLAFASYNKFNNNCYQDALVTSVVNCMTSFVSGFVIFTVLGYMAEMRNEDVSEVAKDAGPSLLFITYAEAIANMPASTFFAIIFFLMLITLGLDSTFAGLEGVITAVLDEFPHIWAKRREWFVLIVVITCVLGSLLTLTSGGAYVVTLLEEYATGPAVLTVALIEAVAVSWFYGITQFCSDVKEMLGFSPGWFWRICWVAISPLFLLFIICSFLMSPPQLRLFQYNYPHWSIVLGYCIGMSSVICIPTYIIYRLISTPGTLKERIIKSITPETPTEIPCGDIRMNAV

Compound	IC50 (dopamine transporter; [2])	IC50 (serotonin transporter; [4])	IC50 (dopamine transporter; [8])	IC50 [1, 9]	IC50 (serotonin transporter; [10])	other results
CN1[C@H]2CC[C@@H]1[C@@H](CO)[C@@H](c1ccc(Cl)cc1)C2 [RTI-93]	1.53 ± 0.15 nM	204 ± 16 nM				IC50 [1, 3]: 43.8 ± 6.4 nM
CN1[C@H]2CC[C@@H]1[C@@H](CO)[C@@H](c1ccc(Br)cc1)C2 [RTI-99]	1.49 ± 0.06 nM	51 ± 4.6 nM				
CN1[C@H]2CC[C@@H]1[C@@H](CO)[C@@H](c1ccc(F)cc1)C2 [RTI-100]	47 ± 4.6 nM	4740 ± 335 nM				
CN1[C@H]2CC[C@@H]1[C@@H](C(=O)O)[C@@H](c1ccc(I)cc1)C2 [RTI-102]	474 ± 57 nM	1930 ± 120 nM				IC50 [1, 3]: 43400 nM
CN1[C@H]2CC[C@@H]1[C@@H](C(=O)O)[C@@H](c1ccc(Br)cc1)C2 [RTI-103]	278 ± 43 nM	3070 ± 208 nM				IC50 [1, 3]: 17400 nM
CN1[C@H]2CC[C@@H]1[C@@H](C(=O)O)[C@@H](c1ccc(F)cc1)C2 [RTI-104]	2740 ± 141 nM	> 100 nM				IC50 [1, 3]: > 100000 nM
Cc1ccc([C@H]2C[C@@H]3CC[C@H]([C@H]2CN)N3C)cc1 [RTI-131]	10.5 ± 1.7 nM	855 ± 52 nM				IC50 [1, 3]: 120 ± 20 nM
Cc1ccc([C@H]2C[C@@H]3CC[C@H]([C@H]2C#N)N3C)cc1 [RTI-158, 3β-(4-Methylphenyl)-tropane-2β-nitrile Hydrochloride]	57 ± 7.3 nM	5100 ± 315 nM				IC50 [1, 3]: 1620 ± 136 nM
CN1[C@H]2CC[C@@H]1[C@@H](c1nnn[nH]1)[C@@H](c1ccc(Cl)cc1)C2 [RTI-163, 3β-(4-Chlorophenyl)-tropane-2β-tetrazole]						IC50 [1, 5]: 17400 nM; IC50 (serotonin transporter; [6]): 5460 ± 64 nM
CNC[C@H]1[C@@H](c2ccc(C)cc2)C[C@@H]2CC[C@H]1N2C [RTI-164]	13.6 ± 2.03 nM	2250 ± 94 nM				IC50 [1, 3]: 280 ± 19 nM
Cc1cc([C@H]2[C@@H](c3ccc(Cl)cc3)C[C@@H]3CC[C@H]2N3C)on1 [RTI-165, 3β-(4-Chlorophenyl)-2β-(3-methylisoxazol-5-yl)tropane Hydrochloride]						IC50 (dopamine transporter; read-out: IC50 DA [3H]-WIN 35,428, Table II): 0.59 ± 0.04 nM; IC50 [1, 5]: 181 ± 12 nM; IC50 (serotonin transporter; [6]): 572 ± 58 nM
COC(=O)C1C(c2ccc(Cl)cc2)CC2CCC1N2C (centres unmarked) [RTI-4229-31]						IC50 (serotonin transporter; [7]): 44.5 nM
COC(=O)C1C(c2ccc(C)cc2)CC2CCC1N2C (centres unmarked) [RTI-4229-32]			1.71 nM	60 nM		
COC(=O)C1C(c2ccc(Br)cc2)CC2CCC1N2C (centres unmarked) [RTI-4229-51]			1.69 nM		240 nM	
COC(=O)C1C(c2ccc(I)cc2)CC2CCC1N2C (centres unmarked) [RTI-4229-55]			1.26 nM	36 nM		IC50 (serotonin transporter; [7]): 4.21 nM
CN1C2CCC1C(C(=O)OCCc1ccc(N)c(I)c1)C(c1ccc(Cl)cc1)C2 (centres unmarked) [RTI-4229-77]			2.51 nM	2250 nM		
CCc1ccc(C2CC3CCC(C2C(=O)OC)N3C)cc1 (centres unmarked) [RTI-4229-83]			55 nM			IC50 (serotonin transporter; [7]): 28.4 nM
Cc1noc(C2C(c3ccccc3)CC3CCC2N3C)n1 (centres unmarked) [RTI-4229-87]			204 nM	35800 nM	28400 nM	
COC(=O)C1C(c2ccc(F)c(C)c2)CC2CCC1N2C (centres unmarked) [RTI-4229-96]			2.95 nM	520 nM	76 nM	
COC(=O)[C@@H]1C2CCC(C[C@@H]1c1ccc(N)c(Br)c1)N2C (some centres unmarked) [RTI-4229-97]			3.91 nM	282 nM	181 nM	
COC(=O)[C@@H]1C2CCC(C[C@@H]1c1ccc(I)cc1)N2 (some centres unmarked) [RTI-4229-98]			0.69 nM	11 nM	0.36 nM	
CN1C2CCC1C(CO)C(c1ccc(I)cc1)C2 (centres unmarked) [RTI-4229-101]	2.2 ± 0.19 nM	26 ± 3.2 nM	2.2 nM		26 nM	
CC(=O)OC[C@@H]1C2CCC(C[C@@H]1c1ccc(Cl)cc1)N2C (some centres unmarked) [RTI-4229-105]	1.8 ± 0.05 nM	143 ± 25 nM	1.6 nM	127 nM	143 nM	IC50 [1, 3]: 127 ± 5.9 nM

Compound	IC50 (dopamine transporter; [2])	IC50 (serotonin transporter; [4])	IC50 (dopamine transporter; [8])	IC50 [1, 9]	IC50 (serotonin transporter; [10])	other results
CN1C2CCC1[C@@H](CCl)[C@@H](c1ccc(Cl)cc1)C2 (some centres unmarked) [RTI-4229-108]	2.64 ± 0.31 nM	98 ± 8.7 nM	2.64 nM	129 nM	98 nM	IC50 [1, 3]: 129 ± 15 nM
COC(=O)C1C2CCC(CC1c1ccc(Cl)cc1)N2 (centres unmarked) [RTI-4229-110]			0.62 nM	5.45 nM		IC50 (serotonin transporter; [7]): 4.13 nM
COC(=O)[C@@H]1C2CCC(C[C@@H]1c1ccc(Cl)c(Cl)c1)N2C (some centres unmarked) [RTI-4229-111]			0.79 nM	18 nM	3.13 nM	
COC(=O)[C@@H]1C2CCC(C[C@@H]1c1ccc(Cl)c(C)c1)N2C (some centres unmarked) [RTI-4229-112]			0.82 nM	36.2 nM	10.5 nM	
CN1C2CCC1C(C(=O)Oc1ccccc1)C(c1ccc(Cl)cc1)C2 (centres unmarked) [RTI-4229-113]			1.98 nM	2960 nM		IC50 (serotonin transporter; [7]): 2330 nM
CC(C)OC(=O)C1C(c2ccc(Cl)cc2)CC2CCC1N2C (centres unmarked) [RTI-4229-114]			1.4 nM	778 nM		IC50 (serotonin transporter; [7]): 1400 nM
CN1C2CCC1C(COc1ccc(I)cc1)C(c1ccc(Cl)cc1)C2 (centres unmarked) [RTI-4229-116]			33 nM	968 nM	1230 nM	
Cc1ccc(C2CC3CCC(C2C(=O)OC(C)C)N3C)cc1 (centres unmarked) [RTI-4229-117]			6.45 nM	1930 nM		IC50 (serotonin transporter; [7]): 6090 nM
Cc1noc([C@@H]2C3CCC(C[C@H]2c2ccccc2)N3C)n1 (some centres unmarked) [RTI-4229-119]			167 nM	6990 nM	40600 nM	
Cc1ccc(C2CC3CCC(C2C(=O)Oc2ccccc2)N3C)cc1 (centres unmarked) [RTI-4229-120]			3.26 nM	5830 nM		IC50 (serotonin transporter; [7]): 24500 nM
CC(C)OC(=O)C1C(c2ccc(I)cc2)CC2CCC1N2C (centres unmarked) [RTI-4229-121]			0.43 nM	285 nM	55.8 nM	
CN1C2CCC1C(C(=O)Oc1ccccc1)C(c1ccc(Cl)cc1)C2 (centres unmarked) [RTI-4229-122]			1.5 nM	3790 nM	184 nM	
CN1C2CCC1C(COC(=O)c1ccccc1)C(c1ccc(Cl)cc1)C2 (centres unmarked) [RTI-4229-123]	1.78 ± 0.09 nM	3.53 ± 0.58 nM	1.78 nM	393 nM	3.53 nM	IC50 [1, 3]: 393 ± 30 nM
Cc1noc([C@@H]2C(c3ccccc3)CC3CCC2N3C)n1 (some centres unmarked) [RTI-4229-124]			1030 nM	71000 nM	33100 nM	
Cc1noc(C2C(c3ccc(Cl)cc3)CC3CCC2N3C)n1 (centres unmarked) [RTI-4229-125]				363 nM	2580 nM	
Cc1noc(C2C(c3ccccc3)CC3CCC2N3C)n1 (centres unmarked) [RTI-4229-126]			100 nM	7880 nM	3820 nM	
CCC(CC)OC(=O)C1C(c2ccc(C)cc2)CC2CCC1N2C (centres unmarked) [RTI-4229-127]			19 nM	3440 nM		IC50 (serotonin transporter; [7]): 4500 nM
CN1C2CCC1C(c1nc(-c3ccccc3)no1)C(c1ccc(Cl)cc1)C2 (centres unmarked) [RTI-4229-130]			1.62 nM	245 nM		IC50 (serotonin transporter; [7]): 195 nM
Cc1ccc(C2CC3CCC(C2CN(C)C)N3C)cc1 (centres unmarked) [RTI-4229-132]	3.48 ± 0.11 nM	208 ± 18 nM	3.48 nM	137 nM	208 nM	IC50 [1, 3]: 137 ± 11 nM
COC(=O)C1C2CCC(C[C@H]1c1ccccc1)N2C (some centres unmarked) [RTI-4229-140]			101 nM	2080 nM		
Cc1ccc(C2CC3CCC([C@@H]2c2nc(-c4ccccc4)no2)N3C)cc1 (some centres unmarked) [RTI-4229-152]			494 nM	22700 nM		
COC(=O)C1C(c2ccc(F)cc2)CC2CCC1N2C (centres unmarked) [RTI-4229-286]				1230 nM	5060 nM	
COC(=O)C1C2CCC(CC1c1ccc(C(C)C)cc1)N2 (centres unmarked) [RTI-4229-330]			310 nM			IC50 (serotonin transporter; [7]): 15.1 nM
